Laboratory results: PMC8795197, “Safety and activity of WX-0593 (Iruplinalkib) in patients with ALK- or ROS1-rearranged advanced non-small cell lung cancer: a phase 1 dose-escalation and dose-expansion trial” (Signal Transduction and Targeted Therapy, 2022)
Read-outs that look alike come from different tables or passages of the source.

Tests used:
Ba/F3 ALK-C1156Y = assay: Growth of transfected Ba/F3 cells (CellTiter-Glo, 3 days); assay type: cell-based; conditions: Mus musculus, BaF3; ALK-C1156Y; read-out: IC50
Protocol: (§1) Harvest cells during the logarithmic growth period and count cells using blood counting chamber. Adjust cell concentration with culture medium. Add 90µl cell suspensions to two 96-well plates to the final cell density as described before. Incubate the plate overnight in humidified incubator at 37℃ with 5% CO2. Dispense 10µl drug solution (10×) to each well (triplicate for each concentration), and the DMSO final concentration in culture medium is 0.1% [v/v]. Culture the plates for 3 days. On Day 3, Read luminescent using Multi Label Reader. The software of GraphPad Prism was used to calculate IC50. The graphical curves were fitted using a nonlinear regression model with a sigmoidal dose response.

Ba/F3 ALK-F1174C = assay: as above; assay type: cell-based; conditions: Mus musculus, BaF3, ALK-F1174C, read-out: IC50
Protocol: as §1

Ba/F3 ALK-F1174L = assay: as above; assay type: cell-based; conditions: Mus musculus, BaF3; ALK-F1174L; read-out: IC50
Protocol: as §1

Ba/F3 ALK-F1174V = assay: as above; assay type: cell-based; conditions: Mus musculus, BaF3; ALK-F1174V; read-out: IC50
Protocol: as §1

Ba/F3 ALK-G1202R = assay: as above; assay type: cell-based; conditions: Mus musculus, BaF3; ALK-G1202R; read-out: IC50
Protocol: as §1

Ba/F3 ALK-G1202del = assay: as above; assay type: cell-based; conditions: Mus musculus, BaF3; ALK-G1202del; read-out: IC50
Protocol: as §1

Ba/F3 ALK-G1269A = assay: as above; assay type: cell-based; conditions: Mus musculus, BaF3; ALK-G1269A; read-out: IC50
Protocol: as §1

Ba/F3 ALK-I1171N = assay: as above; assay type: cell-based; conditions: Mus musculus, BaF3; ALK-I1171N; read-out: IC50
Protocol: as §1

Ba/F3 ALK-I1171S = assay: as above; assay type: cell-based; conditions: Mus musculus, BaF3, ALK-I1171S, read-out: IC50
Protocol: as §1

Ba/F3 ALK-I1171T = assay: as above; assay type: cell-based; conditions: Mus musculus, BaF3; ALK-I1171T; read-out: IC50
Protocol: as §1

Ba/F3 ALK-L1152P = assay: as above; assay type: cell-based; conditions: Mus musculus, BaF3; ALK-L1152P; read-out: IC50
Protocol: as §1

Ba/F3 ALK-L1152R = assay: as above; assay type: cell-based; conditions: Mus musculus, BaF3; ALK-L1152R; read-out: IC50
Protocol: as §1

Ba/F3 ALK-L1196M = assay: as above; assay type: cell-based; conditions: Mus musculus, BaF3; ALK-L1196M; read-out: IC50
Protocol: as §1

Ba/F3 ALK-T1151Tins = assay: as above; assay type: cell-based; conditions: Mus musculus, BaF3; ALK-T1151Tins; read-out: IC50
Protocol: as §1

Ba/F3 ALK-V1180L = assay: as above; assay type: cell-based; conditions: Mus musculus, BaF3; ALK-V1180L; read-out: IC50
Protocol: as §1

Ba/F3 ALK-WT = assay: as above; assay type: cell-based; conditions: Mus musculus, BaF3; ALK-WT; read-out: IC50
Protocol: as §1

Ba/F3 (EML4-ALK-WT) = assay: Cell proliferation inhibition assay; assay type: cell-based
[1] = system: NCI-H3122 (EML4-ALK fusion gene positive) human NSCLC; assay: CDX model: efficacy and exposure in plasma, tumor, brain, lung; assay type: in vivo
From the text: NCI-H3122 (EML4-ALK fusion gene positive) is an ALK wild type human NSCLC. […] Higher drug concentration in the lungs provides the material basis for the treatment of lung cancer.

[2] = Metabolite identification in plasma; assay type: in vivo, SD rat; conditions: oral WX-0593
From the text: Under current experimental conditions, a total of 2 metabolites in addition to the parent drug were detected in rat plasma: a demethylation metabolite, M2 (MW = 554.23, P - CH2) and a mono-oxidation and dehydrogenation product, M6 (MW = 582.23, P + O - 2H). Based on the % peak area from mass spectrometry, the drug exists primarily as the parent drug in the plasma of both male and female rats (97.24% in females and 96.81% in males). Metabolites M2 (2.76% in females and 2.88% in males) and M6 ([…] and 0.31% in males) were both secondary metabolites. Based on the types of metabolites, it is speculated that WX-0593 is mainly metabolized through demethylation, oxidation, and dehydrogenation after oral administration in rats. There was no significant difference in metabolites between female and male rats.

COc1cc(N2CCC3(CCN(C)CC3)CC2)ccc1Nc1ncc(Cl)c(Nc2ccccc2P(C)(C)=O)n1 [WX-0593]
IC50 (Ba/F3 ALK-C1156Y): 0.009 µM
IC50 (Ba/F3 ALK-F1174C; first listing (r10)): 0.036 µM
IC50 (Ba/F3 ALK-F1174C; second listing (r15)): 0.0293 µM
IC50 (Ba/F3 ALK-F1174L): 0.036 µM
IC50 (Ba/F3 ALK-F1174V): 0.0223 µM
IC50 (Ba/F3 ALK-G1202R): 0.096 µM
IC50 (Ba/F3 ALK-G1202del): 0.93 µM
IC50 (Ba/F3 ALK-G1269A): 0.036 µM
IC50 (Ba/F3 ALK-I1171N): 0.0179 µM
IC50 (Ba/F3 ALK-I1171S; first listing (r12)): 0.032 µM
IC50 (Ba/F3 ALK-I1171S; second listing (r19)): 0.0214 µM
IC50 (Ba/F3 ALK-I1171T): 0.0113 µM
IC50 (Ba/F3 ALK-L1152P): 0.0015 µM
IC50 (Ba/F3 ALK-L1152R): 0.0046 µM
IC50 (Ba/F3 ALK-L1196M): 0.036 µM
IC50 (Ba/F3 ALK-T1151Tins): 0.012 µM
IC50 (Ba/F3 ALK-V1180L): 0.0084 µM
IC50 (Ba/F3 ALK-WT): 0.021 µM
growth inhibition (Ba/F3 (EML4-ALK-WT)): significantly inhibits the growth
drug exposure in tumor tissue relative to brigatinib ([1]; 5 mg/kg each): 2 times
efficacy compared with brigatinib ([1]; 5 mg/kg each): comparable
plasma drug exposure compared with brigatinib ([1]; 5 mg/kg each): comparable
drug exposure in the lungs relative to brigatinib ([1]; 5 mg/kg each, 1 h after dosing): approximately 2 times
drug exposure in the brain relative to brigatinib ([1]; 5 mg/kg each, 8 h after dosing): approximately 2 times
drug exposure in the lungs relative to brigatinib ([1]; 5 mg/kg each, 8 h after dosing): approximately 3 times
treatment efficacy versus dose ([1]; 2.5, 5, 10 mg/kg): increased with dose
rank of drug concentrations in tissues ([1]; 1 h and 8 h after dosing, all dose arms (2.5, 5, 10 mg/kg)): lungs > tumor > brain
% peak area from mass spectrometry in plasma ([2]; female rats): 97.24%
% peak area from mass spectrometry in plasma ([2]; male rats): 96.81%
